Test systems include HOP-92 NSCLC; HCT-116 colon; MALME-3M melanoma; EKVX NSCLC; RXF 393 renal; SK-OV-3 ovarian; SR leukemia; NCI-H23 lung; CCRF-CEM leukemia; IGROV1 ovarian; TK-10 renal; A549 NSCLC; SK-MEL-28 melanoma; MDA-MB-435; SK-MEL-5 melanoma; NCI-H460 lung; T-47D breast; SF-295 CNS; HS 578T breast.
Assay in all cases: DTP human tumour cell line panel, 48 h

TGI data for eight molecules are collected here from PubChem BioAssay (NCI).

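In this assay, cells in 96-well plates receive the compound at five concentrations for 48 hours. Endpoints are linearly interpolated between the surrounding concentrations. The concentration for full growth arrest is given as TGI.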

Take `COC(=O)c1c[nH]c2c1-c1cc(C(=O)OCc3ccccc3)n(S(=O)(=O)c3ccc(C)cc3)c1C(=O)C2=O`: the TGI turned out to be 1.29 µM with HOP-92 NSCLC; 0.607 µM with HCT-116 colon; 0.222 µM with MALME-3M melanoma; 0.291 µM in the experiment on EKVX NSCLC; 1.14 µM in the experiment on RXF 393 renal; 3.1 µM in the experiment with SK-OV-3 ovarian. Also, the TGI in the experiment with SR leukemia is 3.51 µM; with NCI-H23 lung, 0.32 µM; with CCRF-CEM leukemia it was over 33.3 µM; with IGROV1 ovarian, 0.955 µM; in the experiment with TK-10 renal, 4.1 µM; in the experiment on A549 NSCLC, 1.97 µM. Moreover, the TGI was 0.244 µM in the experiment with SK-MEL-28 melanoma; 0.135 µM in the experiment with MDA-MB-435; 0.262 µM in the experiment on SK-MEL-5 melanoma; 2.69 µM with NCI-H460 lung; 2.47 µM in the experiment on T-47D breast; 0.312 µM with SF-295 CNS.

Take `CC(C)(C)OC/C=C1\C(=O)O[C@H]2C[C@@H](O[Si](C)(C)C(C)(C)C)C[C@@H]12`: the TGI with HOP-92 NSCLC, with HCT-116 colon, in the experiment with MALME-3M melanoma, with EKVX NSCLC, in the experiment on RXF 393 renal and in the experiment with SK-OV-3 ovarian was over 100 µM in each case. Moreover, the TGI in the experiment on SR leukemia, with NCI-H23 lung, in the experiment with CCRF-CEM leukemia, in the experiment with IGROV1 ovarian, with TK-10 renal and with A549 NSCLC was over 100 µM each time. The TGI in the experiment with SK-MEL-28 melanoma, in the experiment on MDA-MB-435, in the experiment on SK-MEL-5 melanoma, in the experiment with NCI-H460 lung, in the experiment with T-47D breast and with SF-295 CNS was over 100 µM in each case.

Regarding `CN(C)CCn1c(=O)c2ccc3c4c(nn3CCN(C)C)c3cc([N+](=O)[O-])ccc3n(c1=O)c24`, the TGI in the experiment on HCT-116 colon is 0.325 µM; with MALME-3M melanoma, 1.12 µM; in the experiment with EKVX NSCLC, 0.434 µM; in the experiment with RXF 393 renal, 0.434 µM; with SK-OV-3 ovarian, 0.959 µM; in the experiment on NCI-H23 lung it was 0.397 µM. The TGI with CCRF-CEM leukemia stood at 0.417 µM; in the experiment with IGROV1 ovarian it was 4.5 µM; in the experiment on TK-10 renal, 2.01 µM; in the experiment on A549 NSCLC, 1.23 µM; in the experiment with HS 578T breast it was 2.82 µM; in the experiment on SK-MEL-28 melanoma, 2.93 µM. The TGI with MDA-MB-435 was found to be 0.219 µM; in the experiment on SK-MEL-5 melanoma, 1.98 µM; in the experiment on NCI-H460 lung it was 0.176 µM; in the experiment on T-47D breast it was 10.8 µM; in the experiment with SF-295 CNS it was 1.05 µM.

As for `O=c1[nH]nc(Cn2c3ccc(Br)cc3c3nc4ccccc4nc32)n1C1CCCCC1`, the TGI is 63.3 µM in the experiment with HOP-92 NSCLC; over 100 µM in the experiment on HCT-116 colon; over 100 µM in the experiment with EKVX NSCLC; over 100 µM with RXF 393 renal; over 100 µM with SK-OV-3 ovarian; over 100 µM in the experiment on SR leukemia. Also, the TGI was 40.9 µM in the experiment on NCI-H23 lung; over 100 µM in the experiment with IGROV1 ovarian; over 100 µM in the experiment on TK-10 renal; over 100 µM with A549 NSCLC; 59.2 µM in the experiment with SK-MEL-28 melanoma; over 100 µM in the experiment on MDA-MB-435. Besides, the concentration for total growth inhibition (TGI) in the experiment on SK-MEL-5 melanoma, in the experiment on NCI-H460 lung, in the experiment on T-47D breast and in the experiment on SF-295 CNS was over 100 µM each time.

With `COc1ccc(/C=C/C(=O)CC(=O)/C=C/c2ccc(OC)cc2)cc1`, the TGI was 34.5 µM in the experiment on HCT-116 colon; over 100 µM in the experiment with MALME-3M melanoma; over 100 µM in the experiment on EKVX NSCLC; 80 µM in the experiment on RXF 393 renal; over 100 µM in the experiment with SK-OV-3 ovarian; 95.1 µM in the experiment on NCI-H23 lung. The TGI in the experiment with CCRF-CEM leukemia is 54.9 µM; in the experiment on IGROV1 ovarian, over 100 µM; with A549 NSCLC it was over 100 µM; with HS 578T breast, 99.8 µM; in the experiment with SK-MEL-28 melanoma, over 100 µM; in the experiment on MDA-MB-435 it was over 100 µM. Besides, the concentration for total growth inhibition (TGI) with SK-MEL-5 melanoma, with NCI-H460 lung, in the experiment on T-47D breast and in the experiment on SF-295 CNS was over 100 µM in each case.

Take `Cc1ccc(N=NN(C)C(=O)C(C)N)cc1` (stereo unspecified): the TGI in the experiment with HOP-92 NSCLC, in the experiment with HCT-116 colon, in the experiment on MALME-3M melanoma, with EKVX NSCLC, with RXF 393 renal and in the experiment with SR leukemia was over 100 µM throughout. Further, the TGI in the experiment on NCI-H23 lung, in the experiment on CCRF-CEM leukemia, in the experiment on IGROV1 ovarian, with TK-10 renal, in the experiment with SK-MEL-28 melanoma and in the experiment on MDA-MB-435 was over 100 µM in each case. Further, the TGI with SK-MEL-5 melanoma, with NCI-H460 lung, in the experiment with T-47D breast and in the experiment on SF-295 CNS was over 100 µM throughout.

On to `[O-][N+]1=NC(c2ccccc2)=C1c1ccccc1`, for which the TGI in the experiment on HOP-92 NSCLC, with HCT-116 colon, in the experiment with MALME-3M melanoma, with EKVX NSCLC, in the experiment with RXF 393 renal and in the experiment on SK-OV-3 ovarian was over 50 µM each time. Besides, the TGI with NCI-H23 lung, in the experiment with CCRF-CEM leukemia, with IGROV1 ovarian, in the experiment on TK-10 renal, in the experiment on A549 NSCLC and with HS 578T breast was over 50 µM in each case. The TGI with SK-MEL-28 melanoma, in the experiment with MDA-MB-435, in the experiment with SK-MEL-5 melanoma, in the experiment with NCI-H460 lung and in the experiment with SF-295 CNS was over 50 µM throughout.

Turning to `O=[N+]([O-])C(=C1Nc2ccccc2N1)/C(Cl)=C(/Cl)N1CCOCC1`, the TGI in the experiment on HCT-116 colon, in the experiment on MALME-3M melanoma, with EKVX NSCLC, in the experiment on SK-OV-3 ovarian, in the experiment with NCI-H23 lung and with CCRF-CEM leukemia was over 100 µM each time. For the same molecule, the TGI in the experiment on A549 NSCLC was over 100 µM; in the experiment with HS 578T breast it was over 100 µM; in the experiment with SK-MEL-28 melanoma, over 100 µM; in the experiment on MDA-MB-435, over 100 µM; in the experiment on NCI-H460 lung, over 100 µM; with T-47D breast it was 51.2 µM. The molecule also showed a TGI with SF-295 CNS of over 100 µM.
